In assay [1] the test system is HAP1 MTAP-intact. Put plainly: SDMA in-cell western assay, HAP1 MTAP-intact cell line. In kind it is cell-based. As to conditions: Homo sapiens. Put shortly:
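Potency reflects cellular SDMA reduction, detected by in-cell western, in HAP1 cells with or without MTAP (endogenous expression versus null).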

The target in assay [2] is T1, PRMT5 (Homo sapiens, UniProt O14744).
T1 construct: purchased Viva (custom protein)
Put plainly: PRMT5 IC50 assay with no cofactor. The format is biochemical. An outline of the steps: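 Human PRMT5 inhibition, IC50 in μM; cofactor varied (SAM / MTA / none).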

Assay [3] has as its target T1, PRMT5. Put plainly: PRMT5 IC50 assay in the presence of MTA as cofactor. The format is biochemical. As to conditions: for IC50: PRMT5, MTA as cofactor. An outline of the steps:
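IC50 values were measured against human PRMT5 with SAM, with MTA, or with no cofactor. Ki was derived from IC50 as Ki=IC50/1.5 with SAM and Ki=IC50/13.5 with MTA, and the Ki(SAM)/Ki(MTA) ratio was then taken.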

Assay [4] concerns the target T1, PRMT5. Put plainly: PRMT5 IC50 assay in the presence of SAM as cofactor. In kind it is biochemical. An outline of the steps:
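Cofactor-free, SAM and MTA formats; IC50 μM; Ki = IC50/1.5 for SAM, IC50/13.5 for MTA.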

Assay [5] concerns HAP1 MTAP-deleted. In words: SDMA in-cell western assay, HAP1 MTAP-deleted cell line. The format is cell-based. Conditions: for IC50: Homo sapiens, HAP1 MTAP-deleted cell line; for MTAP Intact/Deleted Ratio: IC50 ratio HAP1 MTAP-intact / HAP1 MTAP-deleted. An outline of the steps:
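These are IC50 values from an in-cell western measuring SDMA. The HAP1 cells used carry no MTAP, in contrast to the isogenic partner line with endogenous MTAP expression.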

Where [6] appears, read: ratio between the Ki in the presence of SAM and the Ki in the presence of MTA.
[7] abbreviates: ratio between Ki in the presence of SAM and Ki in the presence of MTA.

Where only a bound is given, the exact number is not on record here.

T1 sequence (O14744 whole entry): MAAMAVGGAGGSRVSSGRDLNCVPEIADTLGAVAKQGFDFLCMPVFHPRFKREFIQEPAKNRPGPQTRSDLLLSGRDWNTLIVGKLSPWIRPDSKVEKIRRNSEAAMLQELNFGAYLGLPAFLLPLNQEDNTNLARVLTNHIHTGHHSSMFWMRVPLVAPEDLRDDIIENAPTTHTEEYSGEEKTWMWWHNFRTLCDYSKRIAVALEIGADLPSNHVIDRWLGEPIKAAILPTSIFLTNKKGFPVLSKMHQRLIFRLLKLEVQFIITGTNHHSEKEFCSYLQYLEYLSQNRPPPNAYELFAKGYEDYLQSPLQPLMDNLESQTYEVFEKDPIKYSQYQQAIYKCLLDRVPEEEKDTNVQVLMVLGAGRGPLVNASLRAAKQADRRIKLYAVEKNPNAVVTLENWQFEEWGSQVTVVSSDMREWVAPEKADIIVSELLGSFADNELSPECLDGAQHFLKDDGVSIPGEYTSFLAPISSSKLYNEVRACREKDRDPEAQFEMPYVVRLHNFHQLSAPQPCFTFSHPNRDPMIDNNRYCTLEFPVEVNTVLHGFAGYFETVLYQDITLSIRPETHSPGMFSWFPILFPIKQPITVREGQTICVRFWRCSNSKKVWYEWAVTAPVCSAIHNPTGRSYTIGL
T1 sequence (Q9BQA1 whole entry partner): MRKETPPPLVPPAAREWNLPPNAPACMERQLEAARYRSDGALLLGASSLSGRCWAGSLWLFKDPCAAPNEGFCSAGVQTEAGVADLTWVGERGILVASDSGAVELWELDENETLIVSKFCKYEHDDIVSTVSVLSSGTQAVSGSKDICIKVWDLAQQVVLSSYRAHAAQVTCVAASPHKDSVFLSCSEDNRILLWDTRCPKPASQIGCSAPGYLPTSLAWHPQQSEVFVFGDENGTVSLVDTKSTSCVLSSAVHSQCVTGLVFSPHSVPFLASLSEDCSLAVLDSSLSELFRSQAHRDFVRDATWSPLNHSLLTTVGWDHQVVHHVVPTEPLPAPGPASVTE

The IC50 is the concentration that gives 50% inhibition. Regarding `CC(C)N1CCN(c2cc(C(=O)NC[C@H](O)CN3CCc4c(ccc(OCc5cnco5)c4Cl)C3)cc(NC3CCC3)n2)CC1` [Compound 566], the IC50 in assay [1] was not below 10 µM; in assay [2] it was 0.5 to 5 µM; in assay [3] it was 50 to 500 nM; in assay [4], 50 to 500 nM; in assay [5], not below 10 µM. The “SAM/MTA Ratio” value in assay [3] (setting [6]) is “A (a Ki ratio greater than or equal to 10 fold between the Ki in the presence of SAM and the Ki in the presence of MTA)”. Further, in assay [5], the “MTAP Intact/Deleted Ratio” value is “C* (an IC50 ratio of less than 3 fold between the IC50 in the HAP1 MTAP-intact cell line and the HAP1 MTAP-deleted cell line)”.
In the case of `Cc1c(OCc2cnco2)ccc2c1CCN(C[C@@H](O)CNC(=O)c1cc(NC3CCN(C(=O)CC(C)C)CC3)ncn1)C2` [Compound 528], the IC50 is not below 10 µM in assay [1]; 0.5 to 5 µM in assay [2]; 50 to 500 nM in assay [3]; 50 to 500 nM in assay [4]; 1 to 10 µM in assay [5]. Also, the “SAM/MTA Ratio” value in assay [3] (setting [6]) is “A (a Ki ratio greater than or equal to 10 fold between the Ki in the presence of SAM and the Ki in the presence of MTA)”. Besides, the “MTAP Intact/Deleted Ratio” value in assay [5] was “C* (an IC50 ratio of less than 3 fold between the IC50 in the HAP1 MTAP-intact cell line and the HAP1 MTAP-deleted cell line)”.
For `CC(=O)N1CCC(Nc2cc(C(=O)NC[C@H](O)CN3CCc4nc(OCc5ocnc5C)ccc4C3)ccn2)CC1` [Compound 617, 2-[(1-acetyl-4-piperidyl)amino]-N-[(2S)-2-hydroxy-3-[2-[(4-methyloxazol-5-yl)methoxy]-7,8-dihydro-5H-1,6-naphthyridin-6-yl]propyl]pyridine-4-carboxamide], the IC50 in assay [1] is not below 10 µM; in assay [2], 0.5 to 5 µM; in assay [3], 50 to 500 nM; in assay [4] it was 50 to 500 nM; in assay [5], 1 to 10 µM. In addition, in assay [5], the “MTAP Intact/Deleted Ratio” value was “C* (an IC50 ratio of less than 3 fold between the IC50 in the HAP1 MTAP-intact cell line and the HAP1 MTAP-deleted cell line)”.
`CCC(=O)N1CCN(c2nc(NC3COC3)cc(C(=O)NC[C@H](O)CN3CCc4c(ccc(OCc5cnco5)c4Cl)C3)n2)CC1` [Compound 318, (S)—N-(3-(5-chloro-6-(oxazol-5-ylmethoxy)-3N-dihydroisoquinolin-2(1H)-yl)-2-hydroxypropyl)-6-(oxetan-3-ylamino)-2-(4-propionylpiperazin-1-yl)pyrimidine-4-carboxamide]: the IC50 in assay [1] was not below 10 µM; in assay [2] (read-out: No Co-factor IC50), 0.5 to 5 µM; in assay [3], 50 to 500 nM; in assay [4] it was 50 to 500 nM; in assay [5], 1 to 10 µM. Moreover, the “SAM/MTA Ratio” value in assay [3] (setting [7]) was “A (a Ki ratio greater than or equal to 10 fold between the Ki in the presence of SAM and the Ki in the presence of MTA)”. In assay [5], the “MTAP Intact/Deleted Ratio” value was “C* (an IC50 ratio of less than 3 fold between the IC50 in the HAP1 MTAP-intact cell line and the HAP1 MTAP-deleted cell line)”.
As for `CC(=O)N1CC(Nc2cc(C(=O)NC[C@H](O)CN3CCc4c(ccc(OCc5ocnc5C)c4C)C3)nc(C(C)(C)C)n2)C1` [Compound 569, (S)-6-((1-acetylazetidin-3-yl)amino)-2-(tert-butyl)-N-(2-hydroxy-3-(5-methyl-6-((4-methyloxazol-5-yl)methoxy)-3,4-dihydroisoquinolin-2(1H)-yl)propyl)pyrimidine-4-carboxamide], the IC50 in assay [1] was not below 10 µM; in assay [2], not below 5 µM; in assay [3], 50 to 500 nM; in assay [4], 50 to 500 nM; in assay [5], 1 to 10 µM. The “SAM/MTA Ratio” value in assay [3] (setting [6]) is “A (a Ki ratio greater than or equal to 10 fold between the Ki in the presence of SAM and the Ki in the presence of MTA)”. Moreover, in assay [5], the “MTAP Intact/Deleted Ratio” value was “B* (an IC50 ratio greater than or equal to 3 fold but lower than 10 fold between the IC50 in the HAP1 MTAP-intact cell line and the HAP1 MTAP-deleted cell line)”.
With `CCC(=O)N1CCC(Nc2cc(C(=O)NC[C@H](O)CN3CCc4c(ccc(OCc5cnco5)c4C)C3)ccn2)CC1` [Compound 496, (S)—N-(2-hydroxy-3-(5-methyl-6-(oxazol-5-ylmethoxy)-3N-dihydroisoquinolin-2(1H)-yl)propyl)-2-((1-propionylpiperidin-4-yl)amino)isonicotinamide], the IC50 is not below 10 µM in assay [1]; 0.5 to 5 µM in assay [2]; 50 to 500 nM in assay [3]; 50 to 500 nM in assay [4]; 1 to 10 µM in assay [5]. Moreover, in assay [3] (setting [6]), the “SAM/MTA Ratio” value was “A (a Ki ratio greater than or equal to 10 fold between the Ki in the presence of SAM and the Ki in the presence of MTA)”. For the same molecule, in assay [5], the “MTAP Intact/Deleted Ratio” value was “B* (an IC50 ratio greater than or equal to 3 fold but lower than 10 fold between the IC50 in the HAP1 MTAP-intact cell line and the HAP1 MTAP-deleted cell line)”.
`CC(C)N1CCN(c2nc(NC3COC3)cc(C(=O)NC[C@H](O)CN3CCc4c(ccc(OCc5cnco5)c4Cl)C3)n2)CC1` [Compound 293, (S)—N-(3-(5-chloro-6-(oxazol-5-ylmethoxy)-3N-dihydroisoquinolin-2(1H)-yl)-2-hydroxypropyl)-2-(4-isopropylpiperazin-1-yl)-6-(oxetan-3-ylamino)pyrimidine-4-carboxamide]: the IC50 is not below 10 µM in assay [1]; 0.5 to 5 µM in assay [2] (read-out: No Co-factor IC50); 50 to 500 nM in assay [3]; 500 to 5000 nM in assay [4]; not below 10 µM in assay [5]. Also, the “SAM/MTA Ratio” value in assay [3] (setting [7]) is “A (a Ki ratio greater than or equal to 10 fold between the Ki in the presence of SAM and the Ki in the presence of MTA)”. Also, in assay [5], the “MTAP Intact/Deleted Ratio” value is “C* (an IC50 ratio of less than 3 fold between the IC50 in the HAP1 MTAP-intact cell line and the HAP1 MTAP-deleted cell line)”.
For `CCCC(=O)N1CCC(Nc2cc(C(=O)NC[C@H](O)CN3CCc4cc(OCc5cnco5)ccc4C3)ccn2)CC1` [Compound 431, 2-[(1-butanoyl-4-piperidyl)amino]-N-[(2S)-2-hydroxy-3-[6-(oxazol-5-ylmethoxy)-3,4-dihydro-1H-isoquinolin-2-yl]propyl]pyridine-4-carboxamide], the IC50 was 1 to 10 µM in assay [1]; 0.5 to 5 µM in assay [2]; 50 to 500 nM in assay [3]; 50 to 500 nM in assay [4]; less than 1 µM in assay [5]. For the same molecule, the “SAM/MTA Ratio” value in assay [3] (setting [6]) was “A (a Ki ratio greater than or equal to 10 fold between the Ki in the presence of SAM and the Ki in the presence of MTA)”. Also, the “MTAP Intact/Deleted Ratio” value in assay [5] is “B* (an IC50 ratio greater than or equal to 3 fold but lower than 10 fold between the IC50 in the HAP1 MTAP-intact cell line and the HAP1 MTAP-deleted cell line)”.
Regarding `O=C(NC[C@H](O)CN1CCc2cc(OCc3cnco3)ccc2C1)c1cc(NC2CCCC2)ncn1` [Compound 372, (S)-6-(cyclopentylamino)-N-(2-hydroxy-3-(6-(oxazol-5-ylmethoxy)-3,4-dihydroisoquinolin-2(1H)-yl)propyl)pyrimidine-4-carboxamide], the IC50 in assay [1] was less than 1 µM; in assay [2] (read-out: No Co-factor IC50), not below 5 µM; in assay [3], 50 to 500 nM; in assay [4] it was 500 to 5000 nM; in assay [5], less than 1 µM. For the same molecule, in assay [3] (setting [7]), the “SAM/MTA Ratio” value is “A (a Ki ratio greater than or equal to 10 fold between the Ki in the presence of SAM and the Ki in the presence of MTA)”. The “MTAP Intact/Deleted Ratio” value in assay [5] was “C* (an IC50 ratio of less than 3 fold between the IC50 in the HAP1 MTAP-intact cell line and the HAP1 MTAP-deleted cell line)”.
Regarding `CN1CCN(c2cc(C(=O)NC[C@H](O)CN3CCc4c(ccc(OCc5cnco5)c4Cl)C3)cc(NC3CCC3)n2)CC1` [Compound 419, (S)—N-(3-(5-chloro-6-(oxazol-5-ylmethoxy)-3N-dihydroisoquinolin-2(1H)-yl)-2-hydroxypropyl)-2-(cyclobutylamino)-6-(4-methylpiperazin-1-yl)isonicotinamide], the IC50 in assay [1] was not below 10 µM; in assay [2] (read-out: No Co-factor IC50), 0.5 to 5 µM; in assay [3] it was 50 to 500 nM; in assay [4], 50 to 500 nM; in assay [5] it was not below 10 µM. The “SAM/MTA Ratio” value in assay [3] (setting [7]) was “A (a Ki ratio greater than or equal to 10 fold between the Ki in the presence of SAM and the Ki in the presence of MTA)”. In addition, the “MTAP Intact/Deleted Ratio” value in assay [5] was “C* (an IC50 ratio of less than 3 fold between the IC50 in the HAP1 MTAP-intact cell line and the HAP1 MTAP-deleted cell line)”.
For the molecule `CCC(=O)N1CCN(c2cc(C(=O)NC[C@H](O)CN3CCc4cc(OCc5cnco5)ccc4C3)cc(NC3CCC3)n2)CC1` [Compound 397, (S)-2-(cyclobutylamino)-N-(2-hydroxy-3-(6-(oxazol-5-ylmethoxy)-3,4-dihydroisoquinolin-2(1H)-yl)propyl)-6-(4-propionylpiperazin-1-yl)isonicotinamide], the IC50 in assay [1] is 1 to 10 µM; in assay [2] (read-out: No Co-factor IC50), 0.5 to 5 µM; in assay [3], 50 to 500 nM; in assay [4], 50 to 500 nM; in assay [5], less than 1 µM. In addition, the “SAM/MTA Ratio” value in assay [3] (setting [7]) is “A (a Ki ratio greater than or equal to 10 fold between the Ki in the presence of SAM and the Ki in the presence of MTA)”. In addition, in assay [5], the “MTAP Intact/Deleted Ratio” value was “C* (an IC50 ratio of less than 3 fold between the IC50 in the HAP1 MTAP-intact cell line and the HAP1 MTAP-deleted cell line)”.
